{"source": "patent US8709511B2", "about": "“External preparation composition for skin comprising ginseng flower or ginseng seed extracts” (Amorepacific Corporation, priority 2008, dated 2014)", "key": {"[1]": {"tested_on": "UVB-darkened human skin (upper arm)", "experiment": "Whitening on human skin after UVB-induced darkening (colorimeter)", "assay_type": "in vivo", "conditions": "applied on UVB-irradiated upper arm for 10 weeks; vehicle 0.51 ± 0.13", "procedure": "In order to examine the whitening effect of the ginseng flower extract prepared in Example 1, the ginseng seed oil prepared in Example 2 and the ginseng seed residue extract prepared in Example 3 on human skin, the following test was carried out.\nFirst, for 12 healthy men, a 1.5-cm perforated opaque tape was attached to the upper arm portion of the subjects, and then the attached portion was irradiated with UVB at a dose of about 1.5-2 times the minimal erythemal dose of each subject to induce skin darkening.\nThe color of the skin was measured with the colorimeter CR2002 (Minolta, Japan) at 1-week intervals.\nThen, the difference in skin color (ΔL*) between the time point of initiation of application and the time point of completion of application of each test material was calculated according to Equation 3, and the calculation results are shown in Table 8. The whitening effect is evaluated by measuring the ΔL* value between the sample-applied portion and the control portion. […] L*=L* value at the time of completion of application−L* value at the time of initiation of application [Equation 3]"}, "[2]": {"tested_on": "Human normal fibroblasts", "experiment": "Inhibition of oxidative damage of DNA by single cell gel electrophoresis (comet assay), H2O2 challenge", "assay_type": "cell-based", "conditions": "10 ppm", "procedure": "Human normal fibroblasts were cultured for 24 hours and treated with varying concentrations of the ginseng flower extract prepared in Example 1, the ginseng seed oil prepared in Example 2, the ginseng seed residue extract prepared in Example 3 and vitamin E. After 12 hours, the cells were treated with the positive control H2O2 (final concentration: 10^−3 M), stained by electrophoresis, and then observed with a fluorescence microscope. The image analyzer Komet 3.1 (Kinetic Imaging, England) was used to analyze the tail length (μm) resulting from the digestion of DNA in each of 25 cells."}, "[3]": {"tested_on": "type I procollagen in human fibroblasts", "experiment": "Type I procollagen assay (ELISA)", "assay_type": "cell-based", "conditions": "10 ng/mL, 3 days; positive control set to 100", "procedure": "Human fibroblasts were cultured in a 12-well culture plate at a concentration of 10 ^5 cells/well, and then the medium was replaced with media containing 1 ppm, 10 ppm and 50 ppm of the ginseng flower extract prepared in Example 1 or with media containing 1 ppm and 10 ppm of the ginseng seed oil prepared in Example 2 or the ginseng seed residue extract prepared in Example 3, as shown in Table 4. At 3 days of culture, the cells were harvested, and the amount of the produced type I procollagen was quantified using an ELISA method. The measurement results were calculated relative to 0 for the control group containing neither the ginseng flower extract nor the ginseng seed extract and 100 for the positive control group (human transforming growth factor-β1 (TGF-β1, Roche Co.))."}, "[4]": {"tested_on": "human HaCaT keratinocyte monolayer culture system", "experiment": "Inhibition of reactive oxygen species production after UVB (DCFH-DA fluorescence)", "assay_type": "cell-based", "procedure": "Antioxidative effect of the ginseng flower extract and the ginseng seed extract was investigated by comparing the capacity of removing reactive oxygen species (ROS) produced in cells in response to UV radiation. The positive control group for the ginseng flower extract was treated with vitamin C (Sigma Co.), which is commonly used to compare antioxidative effect. And, the control group was left untreated. A human HaCaT keratinocyte monolayer culture system (P. Boukamp, German Cancer Research Center, Heidelberg, Germany) was treated with UV (UVB 30 mJ/cm^2) and then with the extract prepared in Example 1 at 10 ppm, 50 ppm and 100 ppm. Then, 2′,7′-dichlorodihydrofluorescein diacetate (DCFH-DA; Molecular Probes, Inc.) was measured with a fluorescence plate reader. Production of ROS was calculated relative to the UV-untreated control group. The positive control group for the ginseng seed extract was treated with Trolox (Aldrich Co.), which is commonly used to compare antioxidative effect. And, the control group was left untreated. […] Then, DCFH-DA (Molecular Probes, Inc.) was measured with a fluorescence plate reader. Inhibition of ROS production was calculated relative to the UV-treated control group."}, "[5]": {"tested_on": "C57BL/6 mouse melanocytes (Mel-Ab cells)", "experiment": "Melanin synthesis inhibition using mouse melanocytes (Dooley's method)", "assay_type": "cell-based", "conditions": "72 h, 3 days", "procedure": "Mouse melanocytes were used to examine the melanin synthesis inhibitory effect of the ginseng flower extract prepared in Example 1, the ginseng seed oil prepared in Example 2 and the ginseng seed residue extract prepared in Example 3.\nFirst, C57BL/6 mouse melanocytes (Mel-Ab cells; Dooley, T. P. et al., Skin Pharmacol., 7, pp. 188-200) were cultured in Dulbecco's modified Eagle's medium (DMEM) containing 10% fetal bovine serum, 100 nM 2-O-tetradecanoylphorbol-13-acetate and 1 nM cholera toxin under the condition of 37° C. and 5% CO2 . The cultured Mel-Ab cells were detached with 0.25% trypsin-EDTA and cultured in a 24-well culture plate at a concentration of 10^5 cells/well. Then, from day 2 of culture, each of 10 ppm, 50 ppm and 100 ppm of the ginseng flower extract (Example 1), the ginseng seed oil (Example 2) and the ginseng seed residue extract (Example 3) was continuously added thereto and cultured for 3 days. The positive control group was treated with arbutin (Sigma Co.). Then, the culture media were removed, and the cells were washed with PBS and lysed with 1 N sodium hydroxide. The lysed cells were measured for absorbance at 400 nm, and then the inhibition of melanin production was calculated according to Equation 2. […] Melanin synthesis inhibition (%)=100−[(Absorbance of each test material/Absorbance of control)×100] […]"}, "[6]": {"tested_on": "matrix metalloproteinase 1 (MMP-1) in human fibroblasts", "experiment": "Inhibition of UVB-induced MMP-1 expression (ELISA)", "assay_type": "cell-based", "conditions": "UVB 40 mJ/cm^2, 10 μM, 2 days; non-UV = 100, UV alone 152", "procedure": "Human fibroblasts were cultured in a 12-well culture plate at a concentration of 10^5 cells/well, and then irradiated with 40 mJ/cm ^2 of UVB. Then, the culture medium was replaced with media containing 1 ppm, 10 ppm and 50 ppm of the ginseng flower extract prepared in Example 1. At 2 days of culture, the cells were harvested, and the amount of produced matrix metalloproteinase 1 (MMP-1) was quantified using an ELISA method. The measurement results were calculated relative to 100 for the non-UV-irradiated control group not treated with the test material. The positive control group was treated with retinoic acid (RA, Sigma Co.)."}}, "data": [{"molecule": "Oc1ccc(O)cc1", "note": "[Hydroquinone, hydroquinone]", "values": [{"measurement": "Skin color brightness (ΔL*)", "setting": "[1]", "value": "1.89 ± 0.15"}]}, {"molecule": "vitamin E", "values": [{"measurement": "Tail length (μm)", "setting": "[2]; 12 h before H2O2 10^-3 M, control 112.4", "value": 68.9, "unit": "μm"}, {"measurement": "Inhibition (%)", "setting": "[2]; inhibition of oxidative DNA damage (tail length) vs control", "value": 38.7, "unit": "%"}]}, {"molecule": "TGF-β1: human transforming growth factor-β1 (Roche Co.), positive control", "values": [{"measurement": "Type I procollagen biosynthesis (%)", "setting": "[3]", "value": 100, "unit": "%"}]}, {"molecule": "Cc1c(C)c2c(c(C)c1O)CCC(C)(C(=O)O)O2", "note": "(centres unmarked) [Trolox]", "values": [{"measurement": "Inhibition of ROS production (%)", "setting": "[4]; UVB 30 mJ/cm^2, 0.1 mM, relative to UV-treated control", "value": 42.7, "unit": "%"}]}, {"molecule": "OC[C@H]1O[C@@H](Oc2ccc(O)cc2)[C@H](O)[C@@H](O)[C@@H]1O", "note": "[Arbutin, arbutin]", "values": [{"measurement": "inhibition at 100 ppm", "setting": "[5]", "value": 51, "unit": "%"}]}, {"molecule": "O=C1O[C@H]([C@@H](O)CO)C(O)=C1O", "note": "[vitamin C]", "values": [{"measurement": "ROS production (%)", "setting": "[4]; UVB 30 mJ/cm^2, 100 μM, relative to UV-untreated control = 100 (UVB alone 161)", "value": 72, "unit": "%"}]}, {"molecule": "CC1=C(/C=C/C(C)=C/C=C/C(C)=C/C(=O)O)C(C)(C)CCC1", "note": "[RA, retinoic acid]", "values": [{"measurement": "MMP-1 biosynthesis (%)", "setting": "[6]", "value": 45, "unit": "%"}]}]}
